Measured values as given in PMC3393770 (Chembiochem, 2012).
Where two headings read alike, the source gives them in different places.

Target: T1, Saccharomyces cerevisiae 20S proteasome, β5 subunit (chymotrypsin-like activity) (Saccharomyces cerevisiae, UniProt P23724+P30656)
T1 sequence (P30656 76-287): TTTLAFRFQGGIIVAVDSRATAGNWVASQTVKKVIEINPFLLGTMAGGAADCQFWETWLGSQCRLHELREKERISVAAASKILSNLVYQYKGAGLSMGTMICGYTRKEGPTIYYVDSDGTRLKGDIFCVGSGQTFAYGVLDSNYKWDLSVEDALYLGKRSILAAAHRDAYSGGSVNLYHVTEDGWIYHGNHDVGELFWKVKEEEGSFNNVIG
T1 sequence (P23724 20-241): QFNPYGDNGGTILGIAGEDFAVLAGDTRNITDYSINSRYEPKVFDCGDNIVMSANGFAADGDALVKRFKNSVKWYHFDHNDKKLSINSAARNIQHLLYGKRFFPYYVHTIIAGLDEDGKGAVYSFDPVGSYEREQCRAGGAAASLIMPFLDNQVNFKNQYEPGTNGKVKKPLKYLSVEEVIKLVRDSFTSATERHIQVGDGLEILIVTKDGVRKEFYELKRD
Assay: […] proteasome β[…]
Format: biochemical

[1] = read-out: Proteasome Inhibition(IC50), chymotrypsin-like site, 0.5 μg/mL proteasome, covalent (α,β-epoxyketone, Thr1)

| IC50 [1] [nM] | SMILES | IC50 [nM] |
| --- | --- | --- |
| 2.5 ± 0.3 | CCCCCC(=O)N[C@H](C(=O)N[C@@H](CC[S+](C)[O-])C(=O)N[C@@H](CC(C)C)C(=O)[C@@]1(C)CO1)C(C)C (mixture of isomers) [compound 1, carmaphycin A] | – |
| 2.6 ± 0.9 | CCCCCC(=O)N[C@H](C(=O)N[C@@H](CCS(C)(=O)=O)C(=O)N[C@@H](CC(C)C)C(=O)[C@@]1(C)CO1)C(C)C [compound 2, carmaphycin B] | – |
| – | C[C@@]12OC(=O)[C@]1([C@@H](O)[C@@H]1C=CCCC1)NC(=O)[C@@H]2CCCl [compound 11, salinosporamide A] | 1.4 ± 0.2 |
